According to patent US20240299431A1, “NEW SYNTHETIC AGONISTS OF TLR4 RECEPTOR” (UNIVERSITÀ DEGLI STUDI DI MILANO - BICOCCA, priority 2021, published 2024):
“Also recorded” adds a separate entry of the source. Read-outs that look alike come from different tables or passages of the source.

What was measured:
[1] = Pilot in vivo toxicity of adjuvants in mice; set-up: species or system C57Bl/6 mice; settings: 10 μg subcutaneously, over 7 days
Experimental: (§1) The ability of FP11 and FP112 to induce immune responses in vivo was compared to MPLA by evaluating antibody production in C57Bl/6 mice immunized with chicken ovalbumin (OVA) as a model antigen. Has been first evaluated the toxicity of FPs in a pilot experiment in which mice were injected subcutaneously with 10 μg of the FP11 and FP112. […] Next, mice were immunized with the tested adjuvants mixed with ovalbumin (OVA). The induction of antibody was evaluated 21 days post immunization.

[2] = test system: Hek-Blue, Raw-Blue, THP-1 cells; test: In vitro tests on Hek-Blue, Raw-Blue and THP-1 cells (summary statements); type: cell-based
[3] = test system: HEK-Blue Null cells; test: HEK-Blue Null cells SEAP reporter (lack the LPS receptors); type: cell-based, human
[4] = test system: IL-1α, IL-1β, IL-6, TNF-α and IFNβ; settings: cited from earlier work
[5] = target: T1, human TLR4 (Homo sapiens, UniProt O00206+Q9Y6Y9); test: Inhibition of LPS-induced SEAP production in HEK-Blue hTLR4 cells (antagonism); type: cell-based
T1 construct: host or cells: HEK-Blue hTLR4 (HEK293-derived)

[6] = test system: C57Bl/6 mice immunized with chicken ovalbumin (OVA); test: OVA immunization, adjuvant activity (anti-OVA total IgG); type: in vivo; settings: for anti-OVA total IgG after prime immunization compared to MPLA-OVA immunized animals / anti-OVA total IgG after prime immunization compared to OVA-immunized control: 21 days post immunization
Experimental: as §1

[7] = test system: Hek-Blue, Raw-Blue, THP-1 cells; settings: prior art section, cited from earlier work
[8] = test system: NF-kB; test: THP-1-X Blue macrophages, NF-kB/AP-1 SEAP reporter; type: cell-based, human
Experimental: (§2) THP-1-X BIue™ cell lines, monocytes differentiated into macrophages following treatment with PMA 100 ng/mL, and RAW-BIue™ were used. Similarly to HEK-Blue cells, THP-1 X-Blue and […] stably express the SEAP reporter gene, under the control of transcription factors NF-kB and AP-1. The cells were treated as previously described.
FP200 activity was then assessed on human monocytes cell line THP-1-X-Blues, described before. Cells were treated with compounds FP11, FP112, FP20, FP200 and FP21 in increasing concentrations (0.1, 1, 10, 20 μM) and using MPLA (0.1-1-10 μM) and S-LPS (100 ng/mL) as a reference and positive receptor activation control, respectively.
Compound FP207, functionalized with MPA, was tested in vitro on human THP-1-XBlue cells to evaluate the NF-kB activation.

[9] = test system: NF-kB; test: RAW-Blue murine macrophages, NF-kB/AP-1 SEAP reporter; type: cell-based; settings: RAW-blue line
Experimental: as §2

[10] = test system: THP-1-X-Blue cells; test: MTT viability assay on differentiated THP-1-X-Blue cells; type: cell-based, human; settings: THP-1-X-Blue macrophages; for toxicity (MTT viability): 0.1-50 μM; for cell viability at the highest concentration tested: 50 μM
Experimental: (§3) The toxicity of the compounds was evaluated by MTT viability assay (3-(4,5-dimethylthiazol-2-yl)-2,5-diphenyltetrazolium bromide).
A preliminary test to investigate the toxicity of this functionalized compound was performed, even though without a triplicate.

[11] = target: T2, human TLR2 (Homo sapiens, UniProt O60603); test: HEK-Blue hTLR2 SEAP reporter assay; type: cell-based; settings: HEK-Blue hTLR2 cells, compounds 0.1-25 μM; PAM2CSK4 positive control (1 ng/mL)
T2 construct: host or cells: HEK-Blue hTLR2 (HEK reporter cell line)
Text: (§4) HEK-BIue™ hTLR4 and HEK-BIue™ hTLR2 (InvivoGen) are cell lines designed to study the activation of human TLR4 and TLR2 receptors, respectively, by monitoring the activation of transcription factors NF-kB and AP-1. Stimulation with TLR4 ligands (in the case of HEK-Blue hTLR4) or with TLR2 ligands (in the case of HEK-Blue hTLR2) activates NF-kB and AP-1, inducing the production and release of the SEAP reporter gene (phosphatase secreted embryonic alkaline) in the extracellular environment. The analysis of the reporter gene was performed using the QUANTI-Blue™ colorimetric assay (InvivoGen), a substrate of SEAP, which generates a chromogenic product whose absorbance is read at 630 nm. […] The molecules were subsequently tested on the HEK-Blue hTLR2 cell line with the aim of excluding the activation of this receptor. In this regard, HEK-Blue hTLR2 cells were treated with the same compounds and at the same concentrations as the tests conducted previously and the compound PAM2CSK4 was used as a positive control for TLR2 activation.

[12] = test system: RAW-Blue; test: MTT viability assay on RAW-Blue cells; type: cell-based; settings: mouse macrophage line RAW-Blue
Experimental: as §3

[13] = test system: TLR4; settings: both murine and human cells; cited from earlier work
[14] = target: T1, human TLR4; settings: HEK-Blue hTLR4 cells, Experiment 2 of WO2019/092572; cited from earlier work
[15] = target: T1, human TLR4; test: HEK-Blue hTLR4 SEAP reporter assay (agonist activity, QUANTI-Blue); type: cell-based; settings: HEK-Blue hTLR4 cells, 0.1-25 μM, 18 hours, normalized to LPS
Text: as §4, with “nm. The agonist activity of the molecules was tested by treating HEK-Blue hTLR4 cells for 18 hours with increasing concentrations of the compounds (0.1-1-10-25 μM) and using MPLA (0.1-1-10 μM) and S-LPS (100 ng/mL) as a reference and positive receptor activation control, respectively.” for “nm.”, “In this regard, HEK-Blue hTLR2 cells were treated with the same compounds and at the same concentrations as the tests conducted previously and the compound PAM2CSK4 was used as a positive control for TLR2 activation.” left out
The ability of FP molecules to activate human TLR4 was assessed using HEK-Blue hTLR4 cells. […]

[16] = tumour-affected patients; cited from earlier work
[17] = test system: Escherichia coli; settings: one dose one day prior to microbial inoculation; cited from earlier work
[18] = test system: interleukin-6 (IL-6), interleukin-8 (IL-8) and TNF-α; settings: murine macrophages and neutrophil granulocytes; cited from earlier work

T2 sequence (O60603 21-784): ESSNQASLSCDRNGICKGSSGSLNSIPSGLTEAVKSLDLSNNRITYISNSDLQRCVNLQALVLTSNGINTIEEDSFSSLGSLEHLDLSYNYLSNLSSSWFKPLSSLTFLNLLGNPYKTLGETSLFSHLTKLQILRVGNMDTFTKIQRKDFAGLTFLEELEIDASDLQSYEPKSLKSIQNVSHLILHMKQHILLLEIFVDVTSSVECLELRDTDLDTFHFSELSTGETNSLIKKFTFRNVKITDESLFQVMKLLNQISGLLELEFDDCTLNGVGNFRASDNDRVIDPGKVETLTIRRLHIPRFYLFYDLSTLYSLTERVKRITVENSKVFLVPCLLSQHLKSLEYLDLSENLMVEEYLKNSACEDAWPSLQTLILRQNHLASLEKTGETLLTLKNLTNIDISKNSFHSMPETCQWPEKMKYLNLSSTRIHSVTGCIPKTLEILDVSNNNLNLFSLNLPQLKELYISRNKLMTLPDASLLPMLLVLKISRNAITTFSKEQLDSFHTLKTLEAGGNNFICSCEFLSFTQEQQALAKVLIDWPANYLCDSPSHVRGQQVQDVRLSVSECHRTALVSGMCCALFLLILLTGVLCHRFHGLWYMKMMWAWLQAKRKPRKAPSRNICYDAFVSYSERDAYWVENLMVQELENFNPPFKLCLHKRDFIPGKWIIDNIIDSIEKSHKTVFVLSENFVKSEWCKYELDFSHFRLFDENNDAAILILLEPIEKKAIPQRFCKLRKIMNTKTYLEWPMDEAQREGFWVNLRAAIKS
T1 sequence (O00206 24-839): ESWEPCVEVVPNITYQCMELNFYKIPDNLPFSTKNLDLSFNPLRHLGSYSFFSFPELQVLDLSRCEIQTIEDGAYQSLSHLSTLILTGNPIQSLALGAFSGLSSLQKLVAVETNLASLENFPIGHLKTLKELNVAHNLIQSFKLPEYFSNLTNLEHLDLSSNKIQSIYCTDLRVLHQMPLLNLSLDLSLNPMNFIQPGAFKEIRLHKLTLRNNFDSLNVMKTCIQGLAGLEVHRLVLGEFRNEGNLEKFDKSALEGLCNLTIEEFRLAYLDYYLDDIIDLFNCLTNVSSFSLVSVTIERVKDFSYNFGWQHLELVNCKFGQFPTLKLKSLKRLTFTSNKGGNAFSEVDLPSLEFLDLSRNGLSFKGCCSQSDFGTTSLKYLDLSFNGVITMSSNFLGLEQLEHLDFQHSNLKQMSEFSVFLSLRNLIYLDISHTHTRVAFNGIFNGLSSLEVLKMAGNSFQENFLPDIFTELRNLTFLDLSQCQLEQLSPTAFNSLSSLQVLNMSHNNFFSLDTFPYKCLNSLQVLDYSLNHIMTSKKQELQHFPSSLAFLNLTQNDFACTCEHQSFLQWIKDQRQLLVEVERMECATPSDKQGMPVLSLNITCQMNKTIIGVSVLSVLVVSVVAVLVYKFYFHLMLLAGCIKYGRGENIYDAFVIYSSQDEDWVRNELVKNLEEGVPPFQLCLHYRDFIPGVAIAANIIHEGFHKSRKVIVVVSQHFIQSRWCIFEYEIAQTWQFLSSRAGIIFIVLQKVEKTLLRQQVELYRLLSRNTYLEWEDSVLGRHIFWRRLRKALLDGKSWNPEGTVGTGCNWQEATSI
T1 sequence (Q9Y6Y9 17-160 limits assumed): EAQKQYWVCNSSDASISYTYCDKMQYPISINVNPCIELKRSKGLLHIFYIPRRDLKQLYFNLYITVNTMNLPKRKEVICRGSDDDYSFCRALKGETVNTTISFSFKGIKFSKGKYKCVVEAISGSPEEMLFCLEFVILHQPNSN

Compound: CCCCCCCCCCCC(=O)NC1C(OP(=O)(O)O)OC(CO)C(OC(=O)CCCCCCCCCCC)C1OC(=O)CCCCCCCCCCC (centres unmarked) [FP112]
- adverse effect on mice (local response at injection site, weight, alertness) [1]: no collateral damage; also recorded: no obvious adverse effect
- toxicity in vitro [2]: low toxicity
- pro-inflammatory activity ([2]; 10 μM): good pro-inflammatory activy
- activity on HEK-Blue Null cells [3]: lack of activity
- release of proinflammatory cytokines [4]: able to stimulate the release of numerous proinflammatory cytokines
- inhibition of LPS-induced SEAP production (TLR4 antagonistic activity) [5]: did not inhibit LPS-induced SEAP production
- anti-OVA total IgG after prime immunization compared to MPLA-OVA immunized animals [6]: significantly lower levels
- anti-OVA total IgG after prime immunization compared to OVA-immunized control [6]: marginally higher levels
- ova-specific IgG levels after boost immunization ([6]; boost on day 22, examined 14 days later): higher than those in the FP11-immunized group
- effectiveness/potency as vaccine adjuvant in vivo ([6]; compared to FP11 and MPLA): comparable to that of MPLA; also recorded: more effective adjuvant in vivo than FP11 and has a potency comparable or even greater than MPLA
- pro-inflammatory activity ([7]; 10 μM): good pro-inflammatory activity
- toxicity in vitro [7]: low toxicity

Compound: CCCCCCCCCCCC(=O)NC1C(OC(=O)CCCCCCCCC)OC(CO)C(OP(=O)([O-])[O-])C1OC(=O)CCCCCCCCC.[Na+].[Na+] (centres unmarked) [FP24]
- concentration from which the compounds activate significantly [8]: 10 µM
- lowest concentration tested at which the compounds are active [9]: 0.1 µM
- toxicity (MTT viability) [10]: non-toxic
- activation of TLR2 (SEAP) [11]: did not produce any activation
- toxicity (MTT viability) ([12]; 50 μM): increase in the toxicity

Compound: CCCCCCCCCCCCCC(=O)OC(CCCCCCCCCCC)CC(=O)O[C@H]1[C@H](OP(=O)(O)O)[C@@H](CO)OC(O)[C@@H]1NC(=O)CC(O)CCCCCCCCCCC (some centres unmarked) [GLA60]
- stimulation of TLR4-dependent production of cytokines TNF-α and IL-6 [13]: active

Compound: CCCCCCCCCCCCCC(=O)NC1[C@H](OP(=O)(O)O)OC(COP(=O)(O)O)[C@@H](OC(=O)CCCCCCCCCCCCC)[C@@H]1OC(=O)CCCCCCCCCCCCC (some centres unmarked) [FP111]
- TLR4 agonist activity [14]: completely inactive
- inhibition of LPS-induced SEAP production (TLR4 antagonistic activity) [5]: did not inhibit LPS-induced SEAP production
- activation of TLR4 (SEAP release, NF-kB and AP-1) [15]: inactive

Compound: CCCCCCCCCCCCCC(=O)OC1OC(CO)C(OP(=O)([O-])[O-])C(OC(=O)CCCCCCCCCCCCC)C1NC(=O)CCCCCCCCCCC.[Na+].[Na+] (centres unmarked) [FP21]
- concentration from which the compounds activate significantly [8]: 10 µM
- lowest concentration tested at which the compounds are active [9]: 0.1 µM
- toxicity (MTT viability) [10]: non-toxic
- activation of TLR2 (SEAP) [11]: did not produce any activation
- toxicity (MTT viability) ([12]; 50 μM): increase in the toxicity

Compound: CCCCCCCCCCCC(=O)NC1C(OC(=O)CCCCCCCCCCC)OC(CO)C(OP(=O)([O-])[O-])C1OC(=O)CCCCCCCCCCC.[Na+].[Na+] (centres unmarked) [FP20]
- concentration from which the compounds activate significantly [8]: 10 µM
- lowest concentration tested at which the compounds are active [9]: 0.1 µM
- cell viability at the highest concentration tested [10]: decrease in cell viability
- toxicity (MTT viability) [10]: non-toxic
- activation of TLR2 (SEAP) [11]: did not produce any activation
- toxicity (MTT viability) ([12]; 50 μM): increase in the toxicity

Compound: CCCCCCCCCCCCCC(=O)NC1C(OC(=O)CCCCCCCCCCCCC)[C@H](OC(=O)CCCCCCCCCCCCC)C(CO)O[C@H]1OP(=O)(O)O (some centres unmarked) [FP11]
- adverse effect on mice (local response at injection site, weight, alertness) [1]: no obvious adverse effect
- activity on HEK-Blue Null cells [3]: lack of activity
- inhibition of LPS-induced SEAP production (TLR4 antagonistic activity) [5]: did not inhibit LPS-induced SEAP production
- anti-OVA total IgG after prime immunization compared to MPLA-OVA immunized animals [6]: significantly lower levels
- anti-OVA total IgG after prime immunization compared to OVA-immunized control [6]: marginally higher levels

Compound: CCCCCCCCCC(=O)NC1C(OC(=O)CCCCCCCCC)OC(CO)C(OP(=O)([O-])[O-])C1OC(=O)CCCCCCCCC.[Na+].[Na+] (centres unmarked) [FP22]
- toxicity (MTT viability) [10]: non-toxic
- toxicity (MTT viability) ([12]; 50 μM): increase in the toxicity

Compound: PAM2CSK4
- activation of TLR2 (SEAP) [11]: strong activation of TLR2

Compound: CCCCCCCCCCC[C@@H](O)CC(=O)N[C@H]1[C@@H](OP(=O)(O)O)O[C@H](CO)[C@@H](OC(=O)C[C@H](O)CCCCCCCCCCC)[C@@H]1OC(=O)C[C@H](O)CCCCCCCCCCC [SDZ MRL 953]
- granulocyte counts and serum cytokine levels [16]: increases granulocyte counts and serum levels of G-CSF and interleukin-6 (IL-6), but not of pro-inflammatory cytokines TNF-α, IL-1b, and IL-8
- safety and tolerability in humans [16]: safe and of excellent tolerability
- effect on curative effects of antibiotics [17]: dramatically increased the curative effects of antibiotics administered
- stimulation of release of inflammatory cytokines [18]: potent activity

Compound: CCCCCCCCCCCCCC(=O)NC1C(OC(=O)CCCCCCCCCCCCC)OC(CO)C(OP(=O)([O-])[O-])C1OC(=O)CCCCCCCCCCCCC.[Na+].[Na+] (centres unmarked) [FP23]
- lowest concentration tested at which the compounds are active [9]: 0.1 µM
- cell viability at the highest concentration tested [10]: decrease in cell viability
- toxicity (MTT viability) [10]: non-toxic
- activation of TLR2 (SEAP) [11]: did not produce any activation
- toxicity (MTT viability) ([12]; 25 μM): show toxicity
- toxicity (MTT viability) ([12]; 50 μM): increase in the toxicity
